{"source": "patent US9994528B2", "about": "“Certain amino-pyridines and amino-triazines, compositions thereof, and methods for their use” (Cytokinetics, Inc., priority 2010, dated 2018)", "test_system": "rabbit skeletal myofibrils (approximately 90% fast fibers)", "assay": "Activation of fast skeletal myofibrils (PUMA coupled-enzyme ATPase assay)", "assay_type": "biochemical", "details": "AC1.4 = concentration at which the compound increased the enzymatic activity by 40%; myofibril suspension at calcium level pCa25; PM12 buffer pH 6.8", "experimental": "Preparation of fast skeletal myofibrils. Rabbit skeletal myofibrils were prepared based upon the method of Herrmann et al. (Biochem. 32(28):7255-7263(1993). Myofibrils were prepared from rabbit psoas muscle purchased from Pel-Freez Biologicals (Arkansas) within 2 days of ordering, stored on ice. Minced muscle was homogenized in 10 volumes of ice-cold “standard” buffer (50 mM Tris, pH 7.4, 0.1 M potassium acetate, 5 mM KCl, 2 mM DTT, 0.2 mM PMSF, 10 μM leupeptin, 5 μM pepstatin, and 0.5 mM sodium azide) containing 5 mM EDTA and 0.5% Triton X-100 using an Omni-Macro homogenizer. Myofibrils were recovered by low speed centrifugation (3000 rpm for 10 minutes) and washed 2 times in the Triton X-100 containing buffer to ensure removal of cellular membrane. Following the Triton washes, myofibrils were washed 3 times in “standard” buffer containing 2 mM magnesium acetate. A final wash in assay buffer (12 mM PIPES, pH 6.8, 60 mM KCl, 1 mM DTT) was performed and brought to 10% sucrose for flash freezing in liquid nitrogen and storage at −80° C.\nActivation of Fast Skeletal Myofibrils. Fast fiber activators were identified by measuring the enzymatic activity of muscle myofibril preparations using the proprietary PUMA™ (see, e.g., U.S. Pat. Nos. 6,410,254, 6,743,599, 7,202,051, and 7,378,254) assay system. Myofibril preparations consisted of rabbit skeletal muscle (approximately 90% fast fibers) that had been mechanically homogenized and washed with a detergent (triton X-100) to remove cellular membranes. This preparation retained all of the sarcomeric components in a native conformation and the enzymatic activity was still regulated by calcium. Compounds were tested using a myofibril suspension and a level of calcium sufficient to increase enzymatic activity of the myofibrils to 25% of their maximal rate (termed pCa25). Enzymatic activity was tracked via a pyruvate kinase and lactate dehydrogenase-coupled enzyme system. This assay regenerates myosin-produced ADP into ATP by oxidizing NADH, producing an absorbance change at 340 nm. The buffering system was 12 mM Pipes, 2 mM MgCl2, 1 mM DTT at pH 6.8 (PM12 buffer).\nUsing procedures similar to those described herein, utilizing reagents and intermediates commercially available (e.g., Sigma-Aldrich,) or readily synthesized by one of skill in the art, the compounds in Table 2 were synthesized, characterized and tested. AC1.4 values were determined according to the procedure described in Example 25, and the reported median AC1.4 values are as follows: A=<1 uM; B=1-10 uM; C=10-20 uM; D=>20 uM.", "data": [{"smiles": "CC(C)(CNc1ccc2cc(C(N)=O)ccc2n1)c1ccc(F)cc1", "note": "[2-{[2-(4-fluorophenyl)-2-methylpropyl]amino}quinoline-6-carboxamide]", "values": [{"measurement": "Mean AC1.4", "result": "B (B=1-10 uM)"}]}, {"smiles": "CC(C)(CNc1ncc(-c2cc(C(=O)O)ccc2F)nn1)c1ncccc1Cl", "note": "[3-(3-{[2-(3-chloro(2-pyridyl))-2-methylpropyl]amino}(1,2,4-triazin-6-yl))-4-fluorobenzoic acid]", "values": [{"measurement": "Mean AC1.4", "result": "B (B=1-10 uM)"}]}, {"smiles": "O=C(O)c1ccc(F)c(-c2cnc(NCC3(c4ncccc4Cl)CCC3)nn2)c1", "note": "[3-[3-({[(3-chloro(2-pyridyl))cyclobutyl]methyl}amino)(1,2,4-triazin-6-yl)]-4-fluorobenzoic acid]", "values": [{"measurement": "Mean AC1.4", "result": "A (A=<1 uM)"}]}, {"smiles": "NC(=O)c1cccc(-c2ncc(NCC3(c4ccc(F)cc4)CCC3)nn2)c1", "note": "[3-[6-({[(4-fluorophenyl)cyclobutyl]methyl}amino 1,2,4-triazin-3-yl]benzamide]", "values": [{"measurement": "Mean AC1.4", "result": "A (A=<1 uM)"}]}, {"smiles": "NC(=O)c1ccc(F)c(-c2cnc(NCC3(c4ncccc4Cl)CC(F)(F)C3)nn2)c1", "note": "[3-[3-({[1-(3-chloro(2-pyridyl))-3,3-difluorocyclobutyl]methyl}amino)(1,2,4-triazin-6-yl)]-4-fluorobenzamide]", "values": [{"measurement": "Mean AC1.4", "result": "A (A=<1 uM)"}]}, {"smiles": "CC(C)(Nc1ncc(-c2ncc(CC(N)=O)s2)nn1)c1ncccc1F", "note": "[2-[2-(3-{[1-(3-fluoro(2-pyridyl))-isopropyl]amino}-1,2,4-triazin-6-yl)-1,3-thiazol-5-yl]acetamide]", "values": [{"measurement": "Mean AC1.4", "result": "D (D=>20 uM)"}]}, {"smiles": "CNC(=O)c1cccc(-c2cnc(NC[C@]3(c4ncccc4F)C[C@H](F)C3)nn2)c1", "note": "[{3-[3-({[3-fluoro-1-(3-fluoro(2-pyridyl))cyclobulyl]methyl}amino)(1,2,4-triazin-6-yl)]phenyl}-N-methylcarboxamide]", "values": [{"measurement": "Mean AC1.4", "result": "B (B=1-10 uM)"}]}, {"smiles": "CC(C)(CNc1cnc(-c2cccc(C(N)=O)c2)nn1)c1ccc(F)cc1", "note": "[3-(6-{[2-(4-fluorophenyl)-2-methylpropyl]amino}-1,2,4-triazin-3-yl)benzamide]", "values": [{"measurement": "Mean AC1.4", "result": "B (B=1-10 uM)"}]}, {"smiles": "c1ccc(-c2ccnc(NC3(c4ccccc4)CCC3)c2)cc1", "note": "[(4-phenyl(2-pyridyl))(phenylcyclobutyl)amine]", "values": [{"measurement": "Mean AC1.4", "result": "C (C=10-20 uM)"}]}, {"smiles": "CC(C)(CNc1ccc(-c2cccc(C(N)=O)c2)cn1)c1ccc(F)cc1", "note": "[3-(6-{[2-(4-fluorophenyl)-2-methylpropyl]amino}-3-pyridyl)benzamide]", "values": [{"measurement": "Mean AC1.4", "result": "A (A=<1 uM)"}]}, {"smiles": "NC(=O)c1ccc(F)c(-c2cnc(NCC3(c4ncccc4F)CCC3)nn2)c1", "note": "[4-fluoro-3-[3-({[(3-fluoro(2-pyridyl))cyclobutyl]methyl}amino)(1,2,4-triazin-6-yl)]benzamide]", "values": [{"measurement": "Mean AC1.4", "result": "A (A=<1 uM)"}]}, {"smiles": "CC(C)(Nc1ncc(-c2ncc(CN)s2)nn1)c1ncccc1Cl", "note": "[{6-[5-(aminomethyl)(1,3-thiazol-2-yl)](1,2,4-triazin-3-yl)}[1-(3-chloro(2-pyridyl))-isopropyl]amine]", "values": [{"measurement": "Mean AC1.4", "result": "D (D=>20 uM)"}]}, {"smiles": "COC(=O)NCc1ccc(NCC(C)(C)c2ccc(F)cc2)nc1", "note": "[N-[(6-{[2-(4-fluorophenyl)-2-methylpropyl]amino}(3-pyridyl))methyl]methoxycarboxamide]", "values": [{"measurement": "Mean AC1.4", "result": "D (D=>20 uM)"}]}, {"smiles": "CC(=O)NCc1cnc(-c2cnc(NC(C)(C)c3ncccc3Cl)nn2)s1", "note": "[N-{[2-(3-{[1-(3-chloro(2-pyridyl))-isopropyl]amino}-1,2,4-triazin-6-yl)-1,3-thiazol-5-yl]methyl}acetamide]", "values": [{"measurement": "Mean AC1.4", "result": "D (D=>20 uM)"}]}, {"smiles": "CC(C)(Nc1ncc(-n2cc(C(N)=O)cn2)nn1)c1ncccc1F", "note": "[1-(3-{[1-(3-fluoro(2-pyridyl))-isopropyl]amino}-1,2,4-triazin-6-yl)pyrazole-4-carboxamide]", "values": [{"measurement": "Mean AC1.4", "result": "D (D=>20 uM)"}]}, {"smiles": "N#Cc1cccc(-c2cnc(NCC3(c4ccccn4)CCC3)nn2)c1", "note": "[3-(3-{[(2-pyridylcyclobutyl)methyl]amino}-1,2,4-triazin-6-yl)benzenecarbonitrile]", "values": [{"measurement": "Mean AC1.4", "result": "B (B=1-10 uM)"}]}, {"smiles": "N#Cc1cccc(-c2cnc(NC[C@]3(c4ncccc4Cl)C[C@H](F)C3)nn2)c1", "note": "[3-[3-({[1-(3-chloro(2-pyridyl))-3-fluorocyclobutyl]methyl}amino)-1,2,4-triazin-6-yl]benzenecarbonitrile]", "values": [{"measurement": "Mean AC1.4", "result": "B (B=1-10 uM)"}]}, {"smiles": "CC(C)(Nc1ncc(-c2ccc(F)c(C(N)=O)c2)nn1)c1ncccc1F", "note": "[2-fluoro-5-(3-{[1-(3-fluoro(2-pyridyl))-isopropyl]amino}(1,2,4-triazin-6-yl))benzamide]", "values": [{"measurement": "Mean AC1.4", "result": "D (D=>20 uM)"}]}, {"smiles": "CNC(=O)c1ccc(F)c(-c2cnc(NC[C@]3(c4ncccc4F)C[C@H](F)C3)nn2)c1", "note": "[{4-fluoro-3-[3-({[3-fluoro-1-(3-fluoro(2-pyridyl))cyclobutyl]methyl}amino)(1,2,4-triazin-6-yl)]phenyl}-N-methylcarboxamide]", "values": [{"measurement": "Mean AC1.4", "result": "B (B=1-10 uM)"}]}, {"smiles": "CC(C)(CNc1cc(-c2ccc(F)cc2)ccn1)c1ccc(F)cc1", "note": "[[4-(4-fluorophenyl)(2-pyridyl)][2-(4-fluorophenyl)-2-methylpropyl]amine]", "values": [{"measurement": "Mean AC1.4", "result": "D (D=>20 uM)"}]}, {"smiles": "C[C@@H](CNc1ccc(-c2cccc(C(N)=O)c2)cn1)c1ccc(F)cc1", "note": "[3-(6-{[(2R)-2-(4-fluorophenyl)propyl]amino}-3-pyridyl)benzamide]", "values": [{"measurement": "Mean AC1.4", "result": "B (B=1-10 uM)"}]}, {"smiles": "CC(C)(Nc1ncc(-c2cc(C(N)=O)ccc2F)nn1)c1ncccc1C(F)F", "note": "[3-[3-({1-[3-(difluoromethyl)(2-pyridyl)]-isopropyl}amino)(1,2,4-triazin-6-yl)]-4-fluorobenzamide]", "values": [{"measurement": "Mean AC1.4", "result": "C (C=10-20 uM)"}]}, {"smiles": "CC(C)(Nc1ncc(-c2cc(CN)ccc2F)nn1)c1ncccc1F", "note": "[{6-[5-(aminomethyl-2-fluorophenyl](1,2,4-triazin-3-yl)}[1-(3-fluoro(2-pyridyl))-isopropyl]amine]", "values": [{"measurement": "Mean AC1.4", "result": "D (D=>20 uM)"}]}, {"smiles": "CC(C)(CNc1ccc(C(N)=O)cn1)c1ccc(F)cc1", "note": "[6-{[2-(4-f1uorophenyl)-2-methylpropyl]amino}pyridine-3-carboxamide]", "values": [{"measurement": "Mean AC1.4", "result": "C (C=10-20 uM)"}]}, {"smiles": "NC(=O)c1ccc(F)c(-c2cnc(NC3(c4cccc(OC(F)F)n4)CCC3)nn2)c1", "note": "[3-[3-({[6-(difluoromethoxy)(2-pyridyl)]cyclobulyl}amino)(1,2,4-triazin-6-yl)]-4-fluorobenzamide]", "values": [{"measurement": "Mean AC1.4", "result": "A (A=<1 uM)"}]}, {"smiles": "c1ccc(-c2ccc(NC3(c4ccccc4)CCC3)nc2)cc1", "note": "[(5-phenyl(2-pyridyl))(phenylcyclobutyl)amine]", "values": [{"measurement": "Mean AC1.4", "result": "B (B=1-10 uM)"}]}, {"smiles": "NC(=O)c1ccc(F)c(-c2cnc(NC3(c4ncccc4F)CCC3)nn2)c1", "note": "[4-fluoro-3-(3-{[(3-fluoro(2-pyridyl))cyclobutyl]amino}(1,2,4-triazin-6-yl))benzamide]", "values": [{"measurement": "Mean AC1.4", "result": "B (B=1-10 uM)"}]}, {"smiles": "CNC(=O)c1ccc(F)c(-c2cnc(NCC3(c4ncccc4F)CCC3)nn2)c1", "note": "[{4-fluoro-3-[3-({[(3-fluoro(2-pyridyl))cyclobutyl]methyl}amino)(1,2,4-triazin-6-yl)]phenyl}-N-methylcarboxamide]", "values": [{"measurement": "Mean AC1.4", "result": "B (B=1-10 uM)"}]}, {"smiles": "NC(=O)c1cccc(-c2cnc(NCC3(c4ncccc4F)CCC3)nn2)c1", "note": "[3-[3-({[(3-fluoro-2-pyridyl)cyclobutyl]methyl}amino)-1,2,4-triazin-6-yl]benzamide]", "values": [{"measurement": "Mean AC1.4", "result": "B (B=1-10 uM)"}]}, {"smiles": "NC(=O)c1ccc(F)c(-c2cnc(NCC3(c4ncccc4Cl)CCC3)nn2)c1", "note": "[3-[3-({[(3-chloro(2-pyridyl))cyclobutyl]methyl}amino)(1,2,4-triazin-6-yl)]-4-fluorobenzamide]", "values": [{"measurement": "Mean AC1.4", "result": "A (A=<1 uM)"}]}]}
